Assay results reported in US20240075037A1, “SKIN BARRIER FUNCTION IMPROVING AGENT” (Japan Tobacco Inc., priority 2013, published 2024).
Like-named read-outs stand apart in the source and are kept apart here.

What was measured:
[1] = system: Tape Stripping-treated mouse; experiment: NMF production increasing action in Tape Stripping-treated mouse (confocal Raman); assay type: in vivo; conditions: 0.5% (w/v) in acetone applied to auricle once a day, one, five and seven days after Tape Stripping, FIGS. 5, 6
Description: As an experimental animal, an 8 to 10 weeks old female C57BL/6j mouse {SHIMIZU Laboratory Supplies Co., Ltd.} was used.
The operation of sticking a cellophane adhesive tape {NICHIBAN CO. , Ltd.} on the inner side of the left auricle of the mouse and peeling the tape off <Tape Stripping> was repeated five times to peel off the cuticle. Each 0.02 mL of acetone <Vehicle> or 0.5% (w/v) test substance was applied to the site having undergone the Tape Stripping once a day until the sixth day after the Tape Stripping. On Day 1 of the Tape Stripping, acetone <Vehicle> or a test substance was applied one hour after the Tape stripping. Compound A or monocitrate of Compound B was used as a test substance.
After one, five and seven days from the Tape Stripping, the total NMF amount of the inner side of the left auricle was determined by an in vivo confocal Raman spectrometer {model 3510, River Diagnostics, Inc.}.
A Raman spectrum in the region of 400 to 1800 cm^−1 was measured at an excitation wavelength of 785 nm at intervals of 1 micrometer from the surface of the inner side of the left auricle to the depth of 8 micrometers. A total NMF amount was quantified as an amount per keratin by using Skin Tools 2.0 {River Diagnostics, Inc.}. […] An average value of the total NMF amount was calculated for each measurement depth, and was shown as an individual value at each depth.

[2] = system: contact dermatitis model mouse; experiment: Suppression of ear swelling in contact dermatitis model mouse (DNFB); assay type: in vivo; conditions: oral 0.3 or 3 mg/mL at 10 mL/Kg once a day, 24 hours from initiation, FIG. 7
Description: Using a contact dermatitis model mouse against DNFB <Non-Patent Literature 10>, the ear swelling suppressing action of the JAK inhibitor was evaluated. As an experimental animal, an 8 weeks old female C57BL/6j mouse {SHIMIZU Laboratory Supplies Co., Ltd.} was used.
An abdominal region of the mouse was shaved, and each 0.025 mL of 0.5% (w/v) DNFB {2,4-Dinitrofluorobenzene, Sigma-Aldrich Corporation} diluted with AOO <mixed solution of acetone and olive oil in 4:1> was applied on the abdominal region . After five days, each 0.01 mL of 0.3% (w/v) DNFB diluted with AOO was applied on the front and back of both the auricles of the mouse . For five days from the date of sensitization, 0.5% (w/v) methylcellulose <MC> was administered once a day to the Vehicle group, and 0.3 mg/mL or 3 mg/mL of Compound A suspended in 0.5% (w/v) MC was orally administered to Compound A administration group in a dose of 10 mL/Kg. Each group included three animals. On the days of sensitization and initiation, 0.5% (w/v) MC or Compound A was orally administered one hour before sensitization and initiation.
Before initiation and after 24 hours from initiation, the thickness of each auricle was measured once with a thickness gauge {TECLOCK Corporation}, and an average of the variation from the thickness of each auricle before initiation was taken as an individual value.

[3] = system: three-dimensional culture skin model TESTSKIN LSE-high; experiment: Increase in protein amount of skin barrier-related protein in three-dimensional culture skin model (Western blotting); assay type: cell-based, human; conditions: 1000 nmol/L
Description: Experiment 4. Increase in Protein Amount of Skin Barrier-Related Protein by JAK Inhibitor in Three-Dimensional Culture Skin Model
As a three-dimensional cultured skin model, TESTSKIN LSE-high {TOYOBO CO., LTD., TMLSE-013A} was used <Non-Patent Literature 11>. According to the instruction manual of the TESTSKIN LSE-high, the Living Skin Equivalent <LSE> tissue on the Transwell was cultured in an assay medium included in the kit at 37° C. under 5% CO2 for 24 hours.
After removing the medium from the LSE tissue culture system, an assay medium containing Compound A in a final concentration of 1000 nmol/L was added in the presence or absence of human IL-4 and human IL-13 {R&D Systems, Inc.} in a final concentration of 20 ng/mL, respectively, and the LSE tissue was cultured at 37° C. under 5% CO2 for three days. The medium was replaced in the same manner as described above, and the LSE tissue was cultured at 37 ° C. under 5% CO2 for another two days. The skin layer of the LSE tissue was collected in a tube, and 0.1 mL of a 50 mmol/L Tris-HCl (pH 8.0) buffer containing 9 mol/L urea, 2% Triton X-100, protease inhibitor cocktail {Sigma-Aldrich Corporation, P8340} and phosphatase inhibitor cocktail {NACALAI TESQUE, INC., 07575-51} was added, and lysed by ultrasonication. To the tissue lysate, 0.08 mL of laemmli SDS-PAGE sample buffer containing 1.73 mmol/L 2-mercaptoethanol was added, and heated at 95 degrees Celsius for five minutes to thermally denature proteins.
The thermally denatured proteins (0.015 mg/lane) were separated by SDS-polyacrylamide electrophoresis <SDS-PAGE> on 4-12% NuPAGE Bis-Tris gel {Life technologies Corporation}, and filaggrin protein and loricrin protein were detected by Western blotting method. As an internal standard, GAPDH protein was detected. According to ordinary methods, the protein that was separated by SDS-PAGE was blotted on a PVDF membrane {GE Healthcare Ltd.}, and the PVDF membrane was blocked with 5% skim milk {NACALAI TESQUE, INC.}. […] The protein of interest was detected by light exposure to an autoradiography film, Amersham Hyperfilm ECL {GE Healthcare Ltd.} from the PVDF membrane, by using a chemiluminescent substrate {ECL Western Blotting Detection Reagents; GE Healthcare Ltd., RPN2232} according to the instruction manual.

dry skin model mouse [4] = experiment: Profilaggrin mRNA amount in dry skin model mouse (quantitative real-time PCR); assay type: in vivo; conditions: dry skin (A/E/W) model mouse, 0.5% (w/v) topical once a day, Days 0, 3 and 6, ratio to Day 0; FIG. 10
Description: Experiment 5. Increase in Profilaggrin mRNA Amount, Increase of NMF Production and Acceleration of Reduction in TEWL by JAK Inhibitor in Dry Skin Model Mouse
(§1) “Production of Dry Skin Model Mouse”
(§2) Using a dry skin model mouse <Non-Patent Literature 12>, the effect of improving the skin barrier function by a JAK inhibitor was evaluated. As an experimental animal, an 8 weeks old female C57BL/6JJmsSlc mouse {Japan SLC, Inc.} was used.
(§3) Absorbent cotton dipped in a mixed liquid of acetone and diethyl ether (1:1) was put on the surface of the inner side of the right or both auricles of the mouse for 30 seconds, and then absorbent cotton dipped in water was put on the same region for 30 seconds <hereinafter, abbreviated as an A/E/W treatment>. This treatment was conducted twice a day for seven days for each group to produce a dry skin model. The day on which the A/E/W treatment started was taken as Day 0. […]
“Quantitative Real-Time PCR”
A mouse having undergone the A/E/W treatment on its right auricle was used in the experiment. […] The cDNA was analyzed by real-time PCR method <intercalator method> using Light Cycler 480 SYBR Green I Master {Roche Diagnostics K.K.} and Light Cycler 480 II {Roche Diagnostics K.K.}, and the Ct values of mouse profilaggrin and GAPDH were respectively determined. […] A relative mRNA amount of mouse profilaggrin was calculated by comparative Ct method. […]

dry skin model mouse [5] = experiment: NMF production in dry skin model mouse (confocal Raman); assay type: in vivo; conditions: dry skin (A/E/W) model mouse, 0.5% (w/v) topical once a day, Day 7; FIG. 11
Description: as §1, §2
as §3, with “model.” for “model. The day on which the A/E/W treatment started was taken as Day 0.”
A mouse having undergone the A/E/W treatment on its both auricles was used in the experiment. On Day 7, the total NMF amount of the stratum corneum of both the auricles of the mouse was determined by an in vivo confocal Raman spectrometer {model 3510, River Diagnostics, Inc.} <Compound A administration group and Vehicle group; n=3, respectively>.
A Raman spectrum in the region of 400 to 1800 cm^−1 was measured at an excitation wavelength of 785 nm at intervals of 1 micrometer from the surface of the inner side of the left auricle to the depth of 8 micrometers. A total NMF amount was quantified as an amount per keratin by using Skin Tools 2.0 {River Diagnostics, Inc.}. […]

dry skin model mouse [6] = experiment: TEWL in dry skin model mouse; assay type: in vivo; conditions: dry skin (A/E/W) model mouse, 0.5% (w/v) topical once a day, Days 0, 1, 3, 4 and 7; FIG. 12
Description: as §1, §2
as §3, with “0. As a normal control group, a mouse not having undergone the A/E/W treatment was used.” for “0.”
A mouse having undergone the A/E/W treatment on its right auricle was used in the experiment. TEWL in the region where the A/E/W treatment had been conducted was measured directly before the A/E/W treatment on Days 0, 1, 3 and 4, and on Day 7 <Compound A administration group and Vehicle group; n=4, respectively>. TEWL was measured by using a water loss measuring device VAPOSCAN AS-VT100RS {ASAHIBIOMED} at room temperatures (23° C. to 26° C.) and a humidity of 40% to 60%. […]

JAK = conditions: cited from earlier work
[7] = in the absence of IL-4/IL-13, five days
[8] = in the presence of IL-4/IL-13 20 ng/mL, five days, FIG. 8

| Structure (SMILES) | total NMF amount (NMF production) [1] | ear swelling (auricle thickness variation) [2] | filaggrin protein amount [3, 7] | loricrin protein amount [3, 7] | filaggrin protein amount [3, 8] | loricrin protein amount [3, 8] | profilaggrin mRNA amount (dry skin model mouse [4]) | total NMF amount (NMF production) (dry skin model mouse [5]) | TEWL (transepidermal water loss) (dry skin model mouse [6]) | JAK inhibition (JAK; stated as known) | JAK inhibition (JAK) |
| --- | --- | --- | --- | --- | --- | --- | --- | --- | --- | --- | --- |
| C[C@H]1CN(C(=O)CC#N)[C@]12CCN(c1ncnc3[nH]ccc13)C2 [Compound A, 3-[(3S,4R)-3-methyl-6-(7H-pyrrolo[2,3-d]pyrimidin-4-yl)-1,6-diazaspiro[3.4]octan-1-yl]-3-oxopropanenitrile] | NMF production increasing action | suppression of ear swelling | increase | increase | increase | increase | increase | NMF production increasing action | accelerating a reduction in TEWL | known to inhibit JAK | – |
| N#CC[C@H](C1CCCC1)n1cc(-c2ncnc3[nH]ccc23)cn1 [Compound C, (3R)-3-cyclopentyl-3-[4-(7H-pyrrolo[2,3-d]pyrimidin-4-yl)-1 H-pyrazol-1-yl]propanenitrile, reference compound] | – | – | – | – | – | – | – | – | – | – | known to inhibit JAK |
| C[C@@H]1CCN(C(=O)CC#N)C[C@@H]1N(C)c1ncnc2[nH]ccc12 [monocitrate of Compound B, 3-{(3R,4R)-4-methyl-3-[methyl(7H-pyrrolo[2,3-d]pyrimidin-4-yl)amino]piperidin-1-yl}-3-oxopropanenitrile, reference compound] | NMF production increasing action | – | – | – | – | – | – | – | – | – | – |
